“And” between values parts separate entries of the source, which are not always exact repeats. Equal values may be shown once. Read-outs that look alike come from different tables or passages of the source. Each block holds one compound with its values, some of them ahead of it.
Assays:
[1] = test system: HIV; assay: Antiviral activity against HIV (method of Mitsuya et al.); assay type: cell-based; settings: Human immunodeficiency virus 1; for IC50: HIV; for minimal effective concentration: no % protection printed, read-out: Concentration at which found to have activity against HIV
Protocol: The compounds of Examples 1-6 were tested for activity against HIV generally in accordance with the method described by Mitsuya et al, Proc. Nat. Acad. Sci, USA Vol 82, pp 7096-7100, October 1985 and found to have activity against HIV at the following concentrations: […]

[2] = Concomitant plasma and brain levels of DDC and its congeners after oral dosing of rats; assay type: in vivo, male Sprague Dawley rats; settings: rat; for Levels of DDC in plasma and brain relative to a dose of DDC, 0.5 hour: 0.5 hour post dose; for Plasma and brain concentrations of DDC relative to a dose of DDC, 2 hours: 2 hours post dose; for Amounts of analogues still containing the N4-amide in plasma and brain / Plasma and brain levels of DDC relative to DDC dosing: oral dose equivalent to 25 mg DDC, 0.5 and 2 hours
Protocol: (§1) Using an intragastric needle, sexually mature, male Sprague Dawley rats were given single 25 mg/kg oral doses of DDC or equimolar doses of DDC Congeners.
For concomitant plasma and brain level studies, each compound was administered to two animals. Animals were sacrificed by decapitation, one of each pair at 30 minutes and the other at 2 hours post dose. Blood was collected into heparinized cups and plasma was prepared. Samples of each plasma were ultrafiltered (Amicon Centrifree Micropartition Systems) prior to HPLC analysis. Brains were removed, weighed, homogenized in 2 volumes (2 ml/g) deionized water and centrifuged (12,000×g 4° C., 30 min). The resulting supernatants were filtered (0.22 μm filters) prior to HPLC analysis.
(§2) A dual-pump HPLC system was used to analyse samples of urine, feces, plasma and brain for DDC and its congeners and their metabolites. The solvent for pump A was 25 mM phosphoric acid, buffered to pH 7.2 with ammonium hydroxide. The solvent for pump B was 60% acetonitrile in solvent A. Samples were injected onto an Adsorbospher phenyl column (4.6×250 mm, 5 micron spherical packing) and eluted at a flow rate of 1 ml/minute using linear increases in solvent B from 0 to 15% over 15 minutes and from 15 to 100% over 21 minutes, with 5 minute purge (100% B) and 15 minute restore (0% B) period between injections. The absorbance of the column effluent was monitored at 273 and 254 nm. Concentrations of compounds were determined by comparing appropriate peak areas to standard curves obtained from analysis of aqueous solutions of authentic standards. Compounds were identified by comparing retention times and ratios of peak areas at 273 and 254 nm to those of authentic standards.

[3] = Urinary and fecal excretion after oral dosing of rats; assay type: in vivo, male Sprague Dawley rats; settings: rat
Protocol: as §1
For urinary and fecal excretion studies, each compound was administered to two animals, which were housed separately in metabolic cages and urine and feces were separated and collected during the 0-24, 24-48 and 48-72 hour intervals post dose. To prevent bacterial growth, sodium azide was placed in the urine collection vessel so that the final concentration, after 24 hours of urine collection, would be about 0.02%. Feces were weighed, homogenized in 9 volumes (9 ml/g) deionized water and centrifuged (12,000×g, 4° C., 30 min). Prior to high-performance liquid chromatographic (HPLC) analysis for drug and metabolite content, samples of the fecal homogenate supernatants and urines were filtered (0.22 μm filters).
as §2

[4] = test system: HIV; settings: known from EP 0216511; cited from earlier work
[5] = in vivo, po, 25 mg/kg, 1440 min

SMILES: CCC(=O)OC[C@@H]1CC[C@H](n2ccc(N)nc2=O)O1 [Example 3, 2',3'-Dideoxy-5'-O-propionylcytidine]
IC50 [1]: 1.6 µM
Levels of DDC in plasma and brain relative to a dose of DDC, 0.5 hour ([2]; oral): higher levels of DDC in the plasma and brain
Plasma and brain concentrations of DDC relative to a dose of DDC, 2 hours ([2]; oral): lower than those observed after a dose of DDC

SMILES: CCC(=O)Nc1ccn([C@H]2CC[C@@H](CO)O2)c(=O)n1 [Example 2, 2',3'-Dideoxy-N^4-propionylcytidine]
IC50 [1]: 36 µM

SMILES: CC(C)(C)C(=O)Nc1ccn([C@H]2CC[C@@H](CO)O2)c(=O)n1 [Example 5, 2',3'-dideoxy-N^4-pivaloylcytidine]
inhibition at 100 µM ([1]; 100 μM, read-out: % Protection): 42%
Amounts of analogues still containing the N4-amide in plasma and brain [2]: Much higher amounts
Plasma and brain levels of DDC relative to DDC dosing [2]: lower than what was observed after dosing with DDC

SMILES: CC(C)(C)C(=O)Nc1ccn([C@H]2CC[C@@H](COC(=O)C(C)(C)C)O2)c(=O)n1 [Example 4, 2',3'-dideoxy-N^4,5'-O-dipivaloylcytidine]
minimal effective concentration [1]: 25 µM
Amounts of analogues still containing the N4-amide in plasma and brain [2]: Much higher amounts
Plasma and brain levels of DDC relative to DDC dosing [2]: lower than what was observed after dosing with DDC

More lines, main results first:

dose excreted at 24 h ([3]; feces, po, 25 mg/kg, rat 1, oral 25 mg/kg, compound detected: DDC, read-out: Percent Dose Excreted as DDC, 0-24 hr Feces): 12%
dose excreted ([3]; feces, po, 25 mg/kg, two rats, oral 25 mg/kg, feces, DDC, read-out: Average fecal excretion of parent compound): 28.1%
Average fecal excretion of 2',3'-dideoxyuridine ([3]; in vivo, po, 25 mg/kg): 1.9 % of the dose
Compound Detected, 24-72 hr Feces ([3]; in vivo, po, 25 mg/kg): none
Gastrointestinal absorption ([3]; in vivo, po, 25 mg/kg): limited gastrointestinal absorption
Percent Dose Excreted as ddU, 0-24 hr Feces [3, 5]: 1.1 Percent Dose
Percent Dose Excreted as ddU, 0-24 hr Urine (second entry so headed) [3, 5]: 2.6 Percent Dose
Percent Dose Excreted as DDC, 0-24 hr Urine ([3]; single oral dose 25 mg/kg DDC or equimolar, individual rats, compound detected: DDC, 25 mg/kg, 1440 min): 31.6 Percent Dose
Percent Dose Excreted as DDC, 24-72 hr Urine ([3]; single oral dose 25 mg/kg DDC or equimolar, individual rats, compound detected: DDC, 25 mg/kg, 4320 min): 6.23 Percent Dose and 1.5 Percent Dose
dose excreted at 24 h ([3]; urine, po, 25 mg/kg, rat 2, oral 25 mg/kg DDC, compound detected: DDC, read-out: Percent Dose Excreted as DDC, 0-24 hr Urine (second entry so headed)): 32.2%
dose excreted at 24 h ([3]; urine, po, 25 mg/kg, single oral dose 25 mg/kg DDC or equimolar, individual rats, compound detected: DDC, read-out: Percent Dose Excreted as DDC, 0-24 hr Urine): 46.6%
dose excreted at 72 h ([3]; urine, po, 25 mg/kg, two rats, oral 25 mg/kg DDC or equimolar, urine 72 hours, read-out: Average urinary excretion as DDC): 43%
SMILES: Nc1ccn([C@H]2CC[C@@H](CO)O2)c(=O)n1 [DDC, 2',3'-Dideoxycytidine, reference compound]
Anti-HIV activity [4]: potent anti-HIV activity
inhibition at 16 µM ([1]; 16 μM, read-out: % Protection): 99%
Absorption and hydrolysis (plasma level data) ([2]; oral): absorption of DDC although incomplete, may be more prolonged

Increase of oral bioavailability of DDC ([3]; in vivo, po): 2.5 fold
SMILES: CC(C)(C)C(=O)OC[C@@H]1CC[C@H](n2ccc(N)nc2=O)O1 [Example 6, 2',3'-Dideoxy-5'-O-pivaloylcytidine]
inhibition at 6.4 µM ([1]; 6.4 μM, read-out: % Protection): 88%
Levels of DDC in plasma and brain relative to a dose of DDC, 0.5 hour ([2]; oral): higher levels of DDC in the plasma and brain
Plasma and brain concentrations of DDC relative to a dose of DDC, 2 hours ([2]; oral): lower than those observed after a dose of DDC

Amounts of analogues still containing the N4-amide in plasma and brain [2]: Much higher amounts
SMILES: CCC(=O)Nc1ccn([C@H]2CC[C@@H](COC(=O)CC)O2)c(=O)n1 [Example 1, 2',3'-Dideoxy-N^4, 5'-O-dipropionylcytidine]
minimal effective concentration [1]: 25 µM
Plasma and brain levels of DDC relative to DDC dosing [2]: lower than what was observed after dosing with DDC

— patent publication US5071983A, “Therapeutic nucleosides” (priority 1989, dated 1991)
